{"source": "patent US6444644B1", "about": "“Anticoagulant peptide fragments derived from apolipoprotein B-100” (University College London, priority 1996, dated 2002)", "key": {"[1]": {"molecular_target": "T1, thromboplastin, reconstituted in phosphatidylcholine (Homo sapiens, UniProt P13726)", "T1 construct": "purchased Gamidor Ltd. (Oxfordshire, U.K.)", "T1 sequence (P13726 33-295)": "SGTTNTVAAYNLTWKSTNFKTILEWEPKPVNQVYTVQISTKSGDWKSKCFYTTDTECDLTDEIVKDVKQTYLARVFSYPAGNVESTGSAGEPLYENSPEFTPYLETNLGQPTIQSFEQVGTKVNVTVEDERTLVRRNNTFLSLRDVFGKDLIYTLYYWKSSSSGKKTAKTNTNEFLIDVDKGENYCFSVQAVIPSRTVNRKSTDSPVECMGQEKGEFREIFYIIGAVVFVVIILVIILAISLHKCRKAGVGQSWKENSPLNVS", "test": "Inhibition of delipidated thromboplastin reconstituted in phosphatidylcholine", "assay_type": "biochemical", "details": "500 nM sample, 37° C., 30 min", "protocol": "In other experiments, recombinant thromboplastin (1 mg/ml) was delipidated with chloroform/methanol as described previously, to remove phosphatidylserine and other lipids and reconstituted with phosphatidylcholine (1 mg/ml) to differentiate between the effects of the prepared samples on the protein moiety of thromboplastin and any effects on the thromboplastin-associated phosphatidylserine. […] The percentage inhibition was calculated against the control sample.\nRecombinant thromboplastin was delipidated to remove phosphatidylserine and other lipids and reconstituted at 1 mg/ml with phosphatidylcholine (1 mg/ml). […] The % Inhibition was calculated against the control. The data were obtained from 3 separate experiments."}, "[2]": {"molecular_target": "factor V", "test": "Influence on factor V procoagulant activity (factor V-deficient plasma)", "assay_type": "biochemical", "details": "factor V 1 μM, 37° C., preactivated factor V deficient plasma; read-out: Kdapp, inhibition of coagulation upon pre-incubation with factor V", "protocol": "Samples (1 ml) of either KRAD-14 peptide (500 nM) or the control peptide (500 nM) were incubated with pre-activated factor V (100 nM) at 37° C. and the factor V activity measured at the beginning and at intervals up to 60 min as follows. The procoagulant activity of factor V was measured by the addition of 100 μl of the sample to factor V-deficient plasma (100 μl) pre-activated by incubation (2 min) with thromboplastin (200 nM) in the presence of CACl2 (25 mM), and measuring the clotting time. The activity was measured against a standard curve and the percentage inhibition calculated against the initial factor V activity. The curves are typical of data from three separate experiments.\nThree 1 ml samples containing recombinant KRAD-14 peptide (20 (♦) 40 (▾) and 80 (▪) nM) were mixed with factor V (1 μM). 100 μl of the each sample was removed immediately and assayed for […] by addition to factor V-deficient plasma, pre-activated by incubation (2 min) with thromboplastin (200 nM) in the presence of CaCl2 (25 mM), and measuring the clotting time. The rest of the samples were incubated at 37° C. and further 100 μl samples were removed at intervals up to 40 min and measured as before. The activity was measured against a standard curve and the percentage inhibition calculated against the initial factor V activity. The curves are typical of data from 3 separate experiments."}, "[3]": {"molecular_target": "thrombin (Homo sapiens, UniProt P00734)", "test": "Influence on thrombin activity (amidolytic and clotting)", "assay_type": "biochemical", "details": "500 nM peptide, thrombin 100 nM", "protocol": "Samples (1 ml) of either KRAD-14 peptide (500 nM) or each of the control peptides (500 nM) were incubated with thrombin (100 nM) at 37° C. and the thrombin activity measured at the beginning and at intervals up to 60 min as follows. The enzymatic activity of thrombin was measured by the addition of 100 μl aliquots to 0.45 ml of thrombin substrate (N-benzoyl-phe-val-arg-p-nitroanilide) (0.26 mM) which was then incubated at 37° C. for exactly 10 min, before the addition of 0.45 ml of 20% (w/v) acetic acid. The absorption was measured at 405 nm against a thrombin (100 nM) control assayed similarly. The procoagulant activity of thrombin was measured by the addition of 100 μl of the sample to control plasma (100 μl) and 25 mM CaCl2 solution and measuring the clotting time. A thrombin 100 nM) control was included in the assay against which comparisons were made."}, "[4]": {"tested_on": "platelets", "test": "Activation of platelets by thrombin", "assay_type": "cell-based"}, "[5]": {"molecular_target": "factor Xa (Homo sapiens, UniProt P00742)", "sequence (P00742 235-488 limits assumed)": "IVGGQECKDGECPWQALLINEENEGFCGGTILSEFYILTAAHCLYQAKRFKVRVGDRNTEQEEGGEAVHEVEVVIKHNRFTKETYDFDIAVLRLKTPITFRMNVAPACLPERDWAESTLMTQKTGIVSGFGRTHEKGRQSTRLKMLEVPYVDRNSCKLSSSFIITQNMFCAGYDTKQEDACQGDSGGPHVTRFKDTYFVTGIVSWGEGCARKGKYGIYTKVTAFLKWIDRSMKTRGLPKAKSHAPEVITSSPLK", "sequence (P00742 41-179 limits assumed)": "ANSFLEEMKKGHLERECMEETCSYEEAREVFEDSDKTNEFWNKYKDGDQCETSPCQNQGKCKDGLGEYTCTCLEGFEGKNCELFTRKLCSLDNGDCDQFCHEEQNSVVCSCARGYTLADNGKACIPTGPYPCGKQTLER", "test": "Influence on factor Xa activity (amidolytic and clotting in factor Xa-deficient plasma)", "assay_type": "biochemical", "protocol": "Samples (1 ml) of either KRAD-14 peptide (500 nM) or the control peptide 500 nM) were incubated with pre-activated factor Xa (100 nM) at 37° C. and the factor Xa activity measured at the beginning and at intervals up to 60 min as follows. The enzymatic activity of factor Xa was measured by the addition of 100 μl aliquots to 0.45 ml of thrombin substrate (N-benzoyl-ile-glu-gly-arg-p-nitroanilide) (0.26 mM) which was then incubated at 37° C. for exactly 10 min, before the addition of 0.45 ml of 20% (w/v) acetic acid. The absorption was measured at 405 nm against a factor Xa (100 nM) control assayed similarly. The procoagulant activity of factor Xa was measured by the addition of 100 μl of the sample to factor Xa-deficient plasma (100 μl) and […] CACl2 solution and measuring the clotting time. A factor Xa (100 nM) control was included in the assay against which comparisons were made.\nThree 1 ml samples containing recombinant KRAD-14 peptide (20 (♦), 40 (▾) and 80 (▪) nM) were mixed with factor Xa (100 nM). […] The rest of the samples were incubated at 37° C. and further 100 μl samples were removed at intervals up to 40 min and measured as before. The activity was measured against a standard curve and the percentage inhibition calculated against the initial factor Xa activity. […]"}, "[6]": {"molecular_target": "T2, thromboplastin (Homo sapiens, UniProt P13726)", "T2 construct": "purchased Gamidor Ltd. (Oxfordshire, U.K.)", "T2 sequence (P13726 33-295)": "as the sequence (P13726 33-295) above", "test": "Stability of the inhibitory effect of KRAD-14 following reconstitution", "assay_type": "physicochemical", "protocol": "However, KRAD-14 was effective at concentration as low as 50 nM. Moreover, the inhibition was unstable and completely disappeared after approximately 8 min following reconstitution. This deterioration was partially stabilised by adjusting the pH and addition of 5 nM bovine serum albumin as a stabiliser. However, the inhibitory effect deteriorated rapidly, completely disappearing after 15 min, following reconstitution."}}, "note": "No end group written: not given here.", "data": [{"sequence": "KAQSKKNKHRHSTT [KRAD-14]", "values": [{"measurement": "inhibition at 0.5 µM", "setting": "[1]; against distilled water control", "result": "> 99", "unit": "%"}, {"measurement": "% Inhibition", "setting": "[1]; against distilled water control, listed as Recombinant KRAD-14 peptide", "result": 99, "unit": "%"}, {"measurement": "Procoagulant Activity", "setting": "[1]; distilled water control 4.70 U/ml", "result": "(0.05 U/ml)"}, {"measurement": "Kd", "setting": "[2]", "result": 285, "unit": "nM"}, {"measurement": "effect on the amidolytic proteolytic activity of thrombin", "setting": "[3]", "result": "did not affect"}, {"measurement": "effect on the clotting ability of thrombin", "setting": "[3]", "result": "did not affect"}, {"measurement": "effect on the activation of platelets by thrombin", "setting": "[4]", "result": "seems to affect the activation of platelets by thrombin"}, {"measurement": "effect on the amidolytic activity of factor Xa", "setting": "[5]; 500 nM peptide", "result": "did not affect"}, {"measurement": "Kd", "setting": "[5]; factor Xa 100 nM, 37° C., factor Xa deficient plasma, read-out: Kdapp, inhibition of coagulation upon pre-incubation with factor Xa", "result": 275, "unit": "nM"}, {"measurement": "time after reconstitution at which the inhibition completely disappeared", "setting": "[6]; no stabiliser", "result": "approximately 8 min"}, {"measurement": "time after reconstitution at which the inhibitory effect completely disappeared", "setting": "[6]; pH adjusted and 5 nM bovine serum albumin added as a stabiliser", "result": 15, "unit": "min"}]}]}
